target: T1, chimeric human H3 receptor (Homo sapiens, UniProt Q9Y5N1); test: Chimeric human H3 receptor GTP binding assay (agonist-stimulated GTP-gamma35S binding, Example 7); format: biochemical; details: Table II "Ki", symbol *; assay of Example 7
T1 construct: made in house; host or cells: Sf9 insect cells (baculovirus); P2 membrane preparation
Text: This Example illustrates a representative assay for evaluating agonist-stimulated GTP-gamma^35S binding (“GTP binding”) activity. […] This agonist-stimulated GTP binding activity can also be used to detect partial agonism mediated by antagonist compounds. A compound analyzed in this assay is referred to herein as a “test compound.”
Four independent baculoviral stocks (one directing the expression of the chimeric human H3 receptor and three directing the expression of each of the three subunits of a heterotrimeric G-protein) are used to infect a culture of Sf9 cells as described above. P2 membranes are prepared as described above, and agonist-stimulated GTP binding on the P2 membranes is assessed using histamine (Sigma Chemical Co., St. Louis, Mo.) as agonist in order to ascertain that the receptor/G-protein-alpha-beta-gamma combination(s) yield a functional response as measured by GTP binding. P2 membranes are resuspended by Dounce homogenization (tight pestle) in GTP binding assay buffer (50 mM Tris pH 7.4, 120 mM NaCl, 5 mM MgCl2, 2 mM EGTA, 1 mg/ml BSA, 0.2 mg/ml bacitracin, 0.02 mg/ml aprotinin, 0.01 mg/ml saponin, 10 μM GDP) and added to assay tubes at a concentration of 35 μg protein/reaction tube. After adding increasing doses of histamine at concentrations ranging from 10^−12 M to 10^−5 M, reactions are initiated by the addition of […] GTP-gamma^35S (PERKIN ELMER; Boston, Mass.) with a final assay volume of 0.20 ml. In competition experiments, non-radiolabeled test compounds are added to separate reactions at concentrations ranging from 10^−10 M to 10^−6 M along with 1 μM histamine to yield a final volume of 0.20 ml.
Neutral antagonists are antagonists that are substantially free of inherent agonist activity, and include those test compounds that reduce the histamine-stimulated GTP binding activity towards, but not below, baseline levels. In contrast, in the absence of added histamine, inverse agonists reduce the GTP binding activity of the receptor-containing membranes below baseline.
After a 60-min incubation at room temperature, reactions are terminated by vacuum filtration over WHATMAN GF/C filters (pre-soaked in wash buffer, 0.1% BSA) followed by washing with ice-cold wash buffer (50 mM Tris pH 7.4, 120 mM NaCl). The amount of receptor-bound (and thereby membrane-bound) GTP-gamma^35S is determined by measuring the filter-bound radioactivity, preferably by liquid scintillation spectrometry of the washed filters. Non-specific binding is determined in parallel assays including 10 μM unlabeled GTP-gammaS and typically represents less than 5 percent of total binding. Data is expressed as percent above basal (baseline). The results of GTP binding experiments are analyzed using SIGMAPLOT software (SPSS Inc., Chicago, Ill.). IC50 values are calculated by non-linear regression analysis of dose-response curves using Kaleidograph (Synergy Software, Reading, Pa.).
Alternatively the data is analyzed as follows. First, the average bound radioactivity from negative control wells (no agonist) is subtracted from the bound radioactivity detected for each of the other experimental wells. Second, average bound radioactivity is calculated for the positive control wells (agonist wells). Then, percent inhibition for each compound tested is calculated using the equation:
Calculated IC50 values are converted to K1 values by the Cheng-Prusoff correction (Cheng and Prusoff (1973) Biochem. Pharmacol. 22(23):3099-3108). Accordingly, the following equation: Ki=IC50/(1+[L]/EC50) is used, where [L] is the histamine concentration in the GTP binding assay, and EC50 is the concentration of histamine producing a 50% response, as determined by a dose-response analysis using concentrations of histamine ranging from 10^−10 M to 10^−6M. […]

T1 sequence (Q9Y5N1 with tags, fused parts or gaps): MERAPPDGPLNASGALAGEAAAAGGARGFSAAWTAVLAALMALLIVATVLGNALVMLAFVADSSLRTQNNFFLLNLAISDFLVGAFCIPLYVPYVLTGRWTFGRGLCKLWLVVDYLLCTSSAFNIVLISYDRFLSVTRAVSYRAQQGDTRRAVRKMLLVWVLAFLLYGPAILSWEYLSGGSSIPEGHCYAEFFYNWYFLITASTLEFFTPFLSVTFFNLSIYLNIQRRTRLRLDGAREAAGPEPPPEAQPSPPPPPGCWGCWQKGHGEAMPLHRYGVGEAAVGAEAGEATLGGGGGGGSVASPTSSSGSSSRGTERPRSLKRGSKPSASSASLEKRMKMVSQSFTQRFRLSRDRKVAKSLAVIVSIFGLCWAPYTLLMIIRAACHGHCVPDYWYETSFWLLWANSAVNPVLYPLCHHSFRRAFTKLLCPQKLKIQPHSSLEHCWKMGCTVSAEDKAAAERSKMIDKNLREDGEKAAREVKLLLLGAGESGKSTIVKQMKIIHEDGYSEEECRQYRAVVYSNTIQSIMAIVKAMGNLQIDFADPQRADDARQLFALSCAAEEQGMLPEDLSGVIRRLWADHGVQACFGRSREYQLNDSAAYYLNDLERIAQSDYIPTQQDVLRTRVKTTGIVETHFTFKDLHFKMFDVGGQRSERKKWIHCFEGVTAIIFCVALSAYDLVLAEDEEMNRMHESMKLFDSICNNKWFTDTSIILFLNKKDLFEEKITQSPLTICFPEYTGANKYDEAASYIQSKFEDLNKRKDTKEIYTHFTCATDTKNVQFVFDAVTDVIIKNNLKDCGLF

Ki, < 1 µM:
CCOc1cccc(-c2ccc3c(c2)CCN(CC(=O)N2CCN(C4CCC4)CC2)C3)c1 [Compound 482, 2-[2-(4-cyclobutylpiperazin-1-yl)-2-oxoethyl]-6-(3-ethoxyphenyl)-1,2,3,4-tetrahydroisoquinoline]
COc1cc(F)c(-c2ccc3c(c2)CCN(CC(=O)N2CCN(C4CCCC4)CC2)C3)cc1F [Compound 507, 2-[2-(4-cyclopentylpiperazin-1-yl)-2-oxoethyl]-6-(2,5-difluoro-4-methoxyphenyl)-1,2,3,4-tetrahydroisoquinoline]

same assay, conditions: Table II; "*" = Ki in assay of Example 7 less than 1 micromolar

Ki, < 1 µM:
N#Cc1ccc(-n2ncc3c2CCN(CC(=O)N2CCN(C4CCC4)CC2)C3)cc1 [Compound 93, 4-{5-[2-(4-cyclobutylpiperazin-1-yl)-2-oxoethyl]-4,5,6,7-tetrahydro-1H-pyrazolo[4,3-c]pyridin-1-yl}benzonitrile]
O=C(CN1CCc2cc(-n3ccnn3)ccc2C1)N1CCN(C2CCC2)CC1 [Compound 208, 2-[2-(4-cyclobutylpiperazin-1-yl)-2-oxoethyl]-6-(1H-1,2,3-triazol-1-yl)-1,2,3,4-tetrahydroisoquinoline]
O=C(CN1CCc2sc(Br)nc2C1)N1CCN(C2CCC2)CC1 [Compound 108, 2-bromo-5-[2-(4-cyclobutylpiperazin-1-yl)-2-oxoethyl]-4,5,6,7-tetrahydro[1,3] thiazolo [4,5-c]pyridine]
O=C(CN1CCc2n[nH]cc2C1)N1CCN(C2CCC2)CC1 [Compound 91, 5-[2-(4-cyclobutylpiperazin-1-yl)-2-oxoethyl]-4,5,6,7-tetrahydro-2H-pyrazolo[4,3-c]pyridine]
CCC1CCC[C@H]2CN(C(=O)CN3CCc4cc(-n5ccc(C(F)(F)F)n5)ccc4C3)CCN12 (stereo in doubt) [Compound 161, 6-ethyl-2-({6-[3-(trifluoromethyl)-1H-pyrazol-1-yl]-3,4-dihydroisoquinolin-2(1H)-yl}acetyl)octahydro-2H-pyrido[1,2-a]pyrazine]
Cc1c2c(nn1-c1ccc(Br)cn1)CCN(CC(=O)N1CCN(C3CCC3)CC1)C2 [Compound 273, 2-(5-bromopyridin-2-yl)-5-[2-(4-cyclobutylpiperazin-1-yl)-2-oxoethyl]-3-methyl-4,5,6,7-tetrahydro-2H-pyrazolo[4,3-c]pyridine]
CC(=O)c1ccc2c(n1)CCN(CC(=O)N1CCN(C3CCC3)CC1)C2 [Compound 173, 1-{6-[2-(4-cyclobutylpiperazin-1-yl)-2-oxoethyl]-5,6,7,8-tetrahydro-1,6-naphthyridin-2-yl}ethanone]
CCC1CCC[C@H]2CN(C(=O)CN3CCc4cc(-c5cncnc5)ccc4C3)CCN12 (stereo in doubt) [Compound 160, 6-ethyl-2-[(6-pyrimidin-5-yl-3,4-dihydroisoquinolin-2(1H)-yl)acetyl]octahydro-2H-pyrido[1,2-a]pyrazine]
CC(=O)c1ccc2c(c1)CCN(CC(=O)N1CCN(C3CCC3)CC1)CC2 [Compound 101, 1-{3-[2-(4-cyclobutylpiperazin-1-yl)-2-oxoethyl]-2,3,4,5-tetrahydro-1H-3-benzazepin-7-yl}ethanone]
O=C(CN1CCc2nc(N3CCC(O)C3)ccc2C1)N1CCN(C2CCC2)CC1 (centres unmarked) [Compound 226, 1-{6-[2-(4-cyclobutylpiperazin-1-yl)-2-oxoethyl]-5,6,7,8-tetrahydro-1,6-naphthyridin-2-yl}pyrrolidin-3-ol]
CC(=O)c1ccc(-n2ncc3c2CCN(CC(=O)N2CCN(C4CCC4)CC2)C3)nn1 [Compound 216, 1-(6-{5-[2-(4-cyclobutylpiperazin-1-yl)-2-oxoethyl]-4,5,6,7-tetrahydro-1H-pyrazolo[4,3-c]pyridin-1-yl}pyridazin-3-yl)ethanone]
O=C(CN1CCc2sccc2C1)N1CCN(C2CCC2)CC1 [Compound 265, 5-[2-(4-cyclobutylpiperazin-1-yl)-2-oxoethyl]-4,5,6,7-tetrahydrothieno[3,2-c]pyridine]
CC(=O)Cc1ccc2c(c1)CCN(CC(=O)N1CCN(C3CCC3)CC1)C2 [Compound 249, 1-{2-[2-(4-cyclobutylpiperazin-1-yl)-2-oxoethyl]-1,2,3,4-tetrahydroisoquinolin-6-yl}acetone]

same assay, conditions: Table II; assay of Example 7

Ki, < 1 µM:
N#Cc1cnc(-n2cc3c(n2)CCN(CC(=O)N2CCN(C4CCC4)CC2)C3)nc1 [Compound 686, 2-{5-[2-(4-cyclobutylpiperazin-1-yl)-2-oxoethyl]-4,5,6,7-tetrahydro-2H-pyrazolo[4,3-c]pyridin-2-yl}pyrimidine-5-carbonitrile]
Cc1nnc2ccc(-n3cc4c(n3)CCN(CC(=O)N3CCN(C5CCC5)CC3)C4)nn12 [Compound 689, 6-{5-[2-(4-cyclobutylpiperazin-1-yl)-2-oxoethyl]-4,5,6,7-tetrahydro-2H-pyrazolo[4,3-c]pyridin-2-y1}-3-methyl[1,2,4]triazolo [4,3-b]pyridazine]

same assay, conditions: assay of Example 7; "*" in Ki of Table II

Ki, < 1 µM:
Cc1cc(C)cc(-c2nc3c(s2)CN(CC(=O)N2CCN(C4CCC4)CC2)CC3)c1 [Compound 310, 5-[2-(4-cyclobutylpiperazin-1-yl)-2-oxoethyl]-2-(3,5-dimethylphenyl)-4,5,6,7-tetrahydro[1,3]thiazolo [5,4-c]pyridine]
O=C(CN1CCc2nc(-c3ccc(OC(F)(F)F)cc3)sc2C1)N1CCN(C2CCC2)CC1 [Compound 316, 5-[2-(4-cyclobutylpiperazin-1-yl)-2-oxoethyl]-2-[4-(trifluoromethoxy)phenyl]-4,5,6,7-tetrahydro[1,3]thiazolo [5,4-c]pyridine]
N#Cc1ccc(-c2nc3c(s2)CN(CC(=O)N2CCN(C4CCC4)CC2)CC3)cc1 [Compound 368, 4-{5-[2-(4-cyclobutylpiperazin-1-yl)-2-oxoethyl]-4,5,6,7-tetrahydro[1,3]thiazolo [5,4-c]pyridin-2-yl}benzonitrile]
O=C(CN1CCc2nc(-c3ccc(F)cc3)sc2C1)N1CCN(C2CCC2)CC1 [Compound 297, 5-[2-(4-cyclobutylpiperazin-1-yl)-2-oxoethyl]-2-(4-fluorophenyl)-4,5,6,7-tetrahydro[1,3]thiazolo [5,4-c]pyridine]
O=C(CN1CCc2nc(-c3cccc(Cl)c3)sc2C1)N1CCN(C2CCC2)CC1 [Compound 295, 2-(3-chlorophenyl)-5-[2-(4-cyclobutylpiperazin-1-yl)-2-oxoethyl]-4,5,6,7-tetrahydro[1,3]thiazolo [5,4-c]pyridine]
Cc1ccc(-n2ncc3c2CN(CC(=O)N2CCN(C4CCC4)CC2)CC3)nn1 [Compound 284, 6-[2-(4-cyclobutylpiperazin-1-yl)-2-oxoethyl]-1-(6-methylpyridazin-3-yl)-4,5,6,7-tetrahydro-1H-pyrazolo[3,4-c]pyridine]
O=C(CN1CCc2nc(-c3ccc4ccccc4c3)sc2C1)N1CCN(C2CCC2)CC1 [Compound 300, 5-[2-(4-cyclobutylpiperazin-1-yl)-2-oxoethyl]-2-(2-naphthyl)-4,5,6,7-tetrahydro[1,3]thiazolo [5,4-c]pyridine]
COc1cccc(-c2ccc3c(c2)CCN(CC(=O)N2CCN(C4CCC4)CC2)C3)c1 [Compound 475, 2-[2-(4-cyclobutylpiperazin-1-yl)-2-oxoethyl]-6-(3-methoxyphenyl)-1,2,3,4-tetrahydroisoquinoline]
Cc1cc(-c2nc3c(s2)CN(CC(=O)N2CCN(C4CCC4)CC2)CC3)ccc1F [Compound 303, 5-[2-(4-cyclobutylpiperazin-1-yl)-2-oxoethyl]-2-(4-fluoro-3-methylphenyl)-4,5,6,7-tetrahydro[1,3]thiazolo [5,4-c]pyridine]
